Like-named read-outs stand apart in the source and are kept apart here.
Target: Recombinant human cathepsin S (CatS) (Homo sapiens, UniProt P25774)
Test: Recombinant human cathepsin S (CatS) inhibition assay, fluorogenic substrate Z-Valine-Valine-Arginine-AMC;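 further: Baculovirus-expressed CatS in pH 5.0 sodium acetate buffer with DTT and NaCl, fluorescence read each minute over 20 min, inhibition derived from rate slope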
[1] = CatS IC50, Table 2, average of results obtained

Recombinant human cathepsin S (CatS), sequence (P25774 115-331): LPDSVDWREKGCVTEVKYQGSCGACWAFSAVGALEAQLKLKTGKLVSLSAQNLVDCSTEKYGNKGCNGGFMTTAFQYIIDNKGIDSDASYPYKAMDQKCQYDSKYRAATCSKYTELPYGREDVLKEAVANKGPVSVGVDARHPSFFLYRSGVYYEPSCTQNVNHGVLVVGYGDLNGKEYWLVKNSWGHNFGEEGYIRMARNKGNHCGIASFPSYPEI

Question: How did the IC50 turn out when CS(=O)(=O)N1CCc2c(c(-c3ccc(Cl)c(C#Cc4ccc(Cl)cc4)c3)nn2CC(O)CN2CCCCC2)C1 (stereo not shown) [Example 125, 1-{3-[4-Chloro-3-(4-chloro-phenylethynyl)-phenyl]-5-methanesulfonyl-4,5,6,7-tetrahydro-pyrazolo[4,3-c]pyridin-1-yl}-3-piperidin-1-yl-propan-2-ol] was run?
Answer: 80 nM

Question: CN(C)c1ccc2c(n1)n(C1CCN(CC(O)Cn3nc(-c4ccc(Cl)c(C#Cc5ccc(Cl)cc5)c4)c4c3CCN(S(C)(=O)=O)C4)CC1)c(=O)n2C (stereo not shown) [Example 126, 3-[1-(3-{3-[4-Chloro-3-(4-chloro-phenylethynyl)-phenyl]-5-methanesulfonyl-4,5,6,7-tetrahydro-pyrazolo[4,3-c]pyridin-1-yl}-2-hydroxy-propyl)-piperidin-4-yl]-5-dimethylamino-1-methyl-1,3-dihydro-imidazo[4,5-b]pyridin-2-one] was tested. Which IC50 did it give?
Answer: 10 nM

Question: Which IC50 does the source give for COC(=O)C1CCN(CC(O)Cn2nc(-c3ccc(Cl)c(C#Cc4ccc(Cl)cc4)c3)c3c2CCN(S(C)(=O)=O)C3)CC1 (stereo not shown) [Example 127, 1-(3-{3-[4-Chloro-3-(4-chloro-phenylethynyl)-phenyl]-5-methanesulfonyl-4,5,6,7-tetrahydro-pyrazolo[4,3-c]pyridin-1-yl}-2-hydroxy-propyl)-piperidine-4-carboxylic acid methyl ester] here?
Answer: 20 nM

Question: How did the IC50 turn out when CS(=O)(=O)N1CCc2c(c(-c3ccc(Cl)c(C#Cc4ccc(Cl)cc4)c3)nn2CC(O)CN2CCC(C(N)=O)CC2)C1 (stereo not shown) [Example 128, 1-(3-{3-[4-Chloro-3-(4-chloro-phenylethynyl)-phenyl]-5-methanesulfonyl-4,5,6,7-tetrahydro-pyrazolo[4,3-c]pyridin-1-yl}-2-hydroxy-propyl)-piperidine-4-carboxylic acid amide] was run?
Answer: 110 nM

Question: CS(=O)(=O)N1CCc2c(c(-c3ccc(Cl)c(C#Cc4ccc(Cl)cc4)c3)nn2CC(O)CN2CCCC2)C1 (stereo not shown) [Example 129, 1-{3-[4-Chloro-3-(4-chloro-phenylethynyl)-phenyl]-5-methanesulfonyl-4,5,6,7-tetrahydro-pyrazolo[4,3-c]pyridin-1-yl}-3-pyrrolidin-1-yl-propan-2-ol] was tested. Which IC50 did it give?
Answer: 120 nM

Question: For CC(C)(C)OC(=O)NC1CCN(CC(O)Cn2nc(-c3ccc(Cl)c(C#Cc4ccc(Cl)cc4)c3)c3c2CCN(S(C)(=O)=O)C3)CC1 (stereo not shown) [Example 130, [1-(3-{3-[4-Chloro-3-(4-chloro-phenylethynyl)-phenyl]-5-methanesulfonyl-4,5,6,7-tetrahydro-pyrazolo[4,3-c]pyridin-1-yl}-2-hydroxy-propyl)-piperidin-4-yl]-carbamic acid tert-butyl ester], which IC50 is on record?
Answer: 80 nM

Question: How did the IC50 turn out when CC(C)(C)OC(=O)N1CCN(CC(O)Cn2nc(-c3ccc(Cl)c(C#Cc4ccc(Cl)cc4)c3)c3c2CCN(S(C)(=O)=O)C3)CC1 (stereo not shown) [Example 131, 4-(3-{3-[4-Chloro-3-(4-chloro-phenylethynyl)-phenyl]-5-methanesulfonyl-4,5,6,7-tetrahydro-pyrazolo[4,3-c]pyridin-1-yl}-2-hydroxy-propyl)-piperazine-1-carboxylic acid tert-butyl ester] was run?
Answer: 160 nM

Question: For CS(=O)(=O)N1CCc2c(c(-c3ccc(Cl)c(C#Cc4ccc(Cl)cc4)c3)nn2CC(O)CN2CCNCC2)C1 (stereo not shown) [Example 132, 1-{3-[4-Chloro-3-(4-chloro-phenylethynyl)-phenyl]-5-methanesulfonyl-4,5,6,7-tetrahydro-pyrazolo[4,3-c]pyridin-1-yl}-3-piperazin-1-yl-propan-2-ol], which IC50 is on record?
Answer: 390 nM

Question: With CS(=O)(=O)N1CCc2c(c(-c3ccc(Cl)c(C#Cc4ccc(Cl)cc4)c3)nn2CC(O)CN2CCC(N)CC2)C1 (stereo not shown) [Example 133, 1-(4-Amino-piperidin-1-yl)-3-{3-[4-chloro-3-(4-chloro-phenylethynyl)-phenyl]-5-methanesulfonyl-4,5,6,7-tetrahydro-pyrazolo[4,3-c]pyridin-1-yl}-propan-2-ol] as the compound, how does the IC50 read?
Answer: 290 nM

Question: CS(=O)(=O)N1CCc2c(c(-c3ccc(Cl)c(C#Cc4ccc5c(c4)CNCC5)c3)nn2CC(O)CN2CCCCC2)C1 (stereo not shown) [Example 134, 1-{3-[4-Chloro-3-(1,2,3,4-tetrahydro-isoquinolin-7-ylethynyl)-phenyl]-5-methanesulfonyl-4,5,6,7-tetrahydro-pyrazolo[4,3-c]pyridin-1-yl}-3-piperidin-1-yl-propan-2-ol] was tested. Which IC50 did it give?
Answer: 180 nM

Question: Which IC50 does the source give for CS(=O)(=O)N1CCc2c(c(-c3ccc(Cl)c(C#Cc4ccc5c(c4)CNCC5)c3)nn2CCCN2CCC(C(N)=O)CC2)C1 [Example 135, 1-(3-{3-[4-Chloro-3-(1,2,3,4-tetrahydro-isoquinolin-7-ylethynyl)-phenyl]-5-methanesulfonyl-4,5,6,7-tetrahydro-pyrazolo[4,3-c]pyridin-1-yl}-propyl)-piperidine-4-carboxylic acid amide] here?
Answer: 60 nM

Question: How did the IC50 turn out when COC(=O)C(=O)N1CCc2c(c(-c3ccc(Cl)c(C#Cc4ccc(Cl)cc4)c3)nn2CCCN2CCOCC2)C1 [Example 136, [3-[4-Chloro-3-(4-chloro-phenylethynyl)-phenyl]-1-(3-morpholin-4-yl-propyl)-1,4,6,7-tetrahydro-pyrazolo[4,3-c]pyridin-5-yl]-oxo-acetic acid methyl ester] was run?
Answer: 50 nM

Question: How did the IC50 (CatS IC50) turn out when O=C(c1ccccn1)N1CCc2c(c(-c3ccc(Cl)c(C#Cc4ccc(Cl)cc4)c3)nn2CCCN2CCOCC2)C1 [Example 137, [3-[4-Chloro-3-(4-chloro-phenylethynyl)-phenyl]-1-(3-morpholin-4-yl-propyl)-1,4,6,7-tetrahydro-pyrazolo[4,3-c]pyridin-5-yl]-pyridin-2-yl-methanone] was run?
Answer: 140 nM

Question: How did the IC50 [1] turn out when O=C(c1ccco1)N1CCc2c(c(-c3ccc(Cl)c(C#Cc4ccc(Cl)cc4)c3)nn2CCCN2CCOCC2)C1 [Example 138, [3-[4-Chloro-3-(4-chloro-phenylethynyl)-phenyl]-1-(3-morpholin-4-yl-propyl)-1,4,6,7-tetrahydro-pyrazolo[4,3-c]pyridin-5-yl]-furan-2-yl-methanone] was run?
Answer: 350 nM

Question: With O=C(N1CCc2c(c(-c3ccc(Cl)c(C#Cc4ccc(Cl)cc4)c3)nn2CCCN2CCOCC2)C1)C(F)(F)F [Example 139, 1-[3-[4-Chloro-3-(4-chloro-phenylethynyl)-phenyl]-1-(3-morpholin-4-yl-propyl)-1,4,6,7-tetrahydro-pyrazolo[4,3-c]pyridin-5-yl]-2,2,2-trifluoro-ethanone] as the compound, how does the IC50 [1] read?
Answer: 230 nM

Question: For O=C(CF)N1CCc2c(c(-c3ccc(Cl)c(C#Cc4ccc(Cl)cc4)c3)nn2CCCN2CCOCC2)C1 [Example 140, 1-[3-[4-Chloro-3-(4-chloro-phenylethynyl)-phenyl]-1-(3-morpholin-4-yl-propyl)-1,4,6,7-tetrahydro-pyrazolo[4,3-c]pyridin-5-yl]-2-fluoro-ethanone], which IC50 [1] is on record?
Answer: 250 nM

Question: How did the IC50 (CatS IC50) turn out when O=C(C1CCCO1)N1CCc2c(c(-c3ccc(Cl)c(C#Cc4ccc(Cl)cc4)c3)nn2CCCN2CCOCC2)C1 (stereo not shown) [Example 141, [3-[4-Chloro-3-(4-chloro-phenylethynyl)-phenyl]-1-(3-morpholin-4-yl-propyl)-1,4,6,7-tetrahydro-pyrazolo[4,3-c]pyridin-5-yl]-(tetrahydro-furan-2-yl)-methanone] was run?
Answer: 310 nM

Question: How did the IC50 (CatS IC50) turn out when CC(=O)OCC(=O)N1CCc2c(c(-c3ccc(Cl)c(C#Cc4ccc(Cl)cc4)c3)nn2CCCN2CCOCC2)C1 [Example 142, Acetic acid 2-[3-[4-chloro-3-(4-chloro-phenylethynyl)-phenyl]-1-(3-morpholin-4-yl-propyl)-1,4,6,7-tetrahydro-pyrazolo[4,3-c]pyridin-5-yl]-2-oxo-ethyl ester] was run?
Answer: 280 nM

Question: NC(=O)N1CCc2c(c(-c3ccc(Cl)c(C#Cc4ccc(Cl)cc4)c3)nn2CCCN2CCOCC2)C1 [Example 144, 3-[4-Chloro-3-(4-chloro-phenylethynyl)-phenyl]-1-(3-morpholin-4-yl-propyl)-1,4,6,7-tetrahydro-pyrazolo[4,3-c]pyridine-5-carboxylic acid amide] was tested. Which IC50 did it give?
Answer: 60 nM

Question: How did the IC50 turn out when NC(=O)N1CCc2c(c(-c3ccc(Cl)c(CCc4ccc(Cl)cc4)c3)nn2CCCN2CCOCC2)C1 [Example 145, 3-{4-Chloro-3-[2-(4-chloro-phenyl)-ethyl]-phenyl}-1-(3-morpholin-4-yl-propyl)-1,4,6,7-tetrahydro-pyrazolo[4,3-c]pyridine-5-carboxylic acid amide] was run?
Answer: 90 nM

Question: With CS(=O)(=O)N1CCc2c(c(-c3ccc(C(F)(F)F)c(CCc4ccc(Cl)cc4)c3)nn2CC(O)CN2CCC(N3CCCC3=O)CC2)C1 (stereo not shown) [Example 146, 1-{1-[3-(3-{3-[2-(4-Chloro-phenyl)-ethyl]-4-trifluoromethyl-phenyl}-5-methanesulfonyl-4,5,6,7-tetrahydro-pyrazolo[4,3-c]pyridin-1-yl)-2-hydroxy-propyl]-piperidin-4-yl}-pyrrolidin-2-one] as the compound, how does the IC50 read?
Answer: 60 nM

Question: For CS(=O)(=O)N1CCc2c(c(-c3ccc(C(F)(F)F)c(CCc4ccc(Cl)cc4)c3)nn2CC(O)CN2CCOCC2)C1 (stereo not shown) [Example 147, 1-(3-{3-[2-(4-Chloro-phenyl)-ethyl]-4-trifluoromethyl-phenyl}-5-methanesulfonyl-4,5,6,7-tetrahydro-pyrazolo[4,3-c]pyridin-1-yl)-3-morpholin-4-yl-propan-2-ol], which IC50 is on record?
Answer: 410 nM

Question: CS(=O)(=O)N1CCc2c(c(-c3ccc(Cl)c(CCc4ccc(Cl)cc4)c3)nn2CC(O)CN2CCC3(CCNC3=O)CC2)C1 (stereo not shown) [Example 148, 8-[3-(3-{4-Chloro-3-[2-(4-chloro-phenyl)-ethyl]-phenyl}-5-methanesulfonyl-4,5,6,7-tetrahydro-pyrazolo[4,3-c]pyridin-1-yl)-2-hydroxy-propyl]-2,8-diaza-spiro[4.5]decan-1-one] was tested. Which IC50 did it give?
Answer: 80 nM

Question: CS(=O)(=O)N1CCc2c(c(-c3ccc(Cl)c(CCc4ccc(Cl)cc4)c3)nn2CC(O)CN2CCOCC2)C1 (stereo not shown) [Example 149, 1-(3-{4-Chloro-3-[2-(4-chloro-phenyl)-ethyl]-phenyl}-5-methanesulfonyl-4,5,6,7-tetrahydro-pyrazolo[4,3-c]pyridin-1-yl)-3-morpholin-4-yl-propan-2-ol] was tested. Which IC50 did it give?
Answer: 110 nM

Question: NC(=O)C(=O)N1CCc2c(c(-c3ccc(Cl)c(C#Cc4ccc(CNCc5ccc(Cl)cc5)cc4)c3)nn2CCCN2CCOCC2)C1 [Example 150, 2-[3-(4-Chloro-3-{[4-({[(4-chlorophenyl)methyl]amino}methyl)phenyl]ethynyl}phenyl)-1-(3-morpholin-4-ylpropyl)-1,4,6,7-tetrahydro-5H-pyrazolo[4,3-c]pyridin-5-yl]-2-oxoacetamide] was tested. Which IC50 did it give?
Answer: 80 nM

From patent publication US20080200454A1, “CARBON-LINKED TETRAHYDRO-PYRAZOLO-PYRIDINE MODULATORS OF CATHEPSIN S” (priority 2007, published 2008)
